Test results published in ChEMBL document CHEMBL2439951, “Discovery of N-(benzo[1,2,3]triazol-1-yl)-N-(benzyl)acetamido)phenyl) carboxamides as severe acute respiratory syndrome coronavirus (SARS-CoV) 3CLpro inhibitors: identification of ML300 and noncovalent nanomolar inhibitors with an induced-fit binding” (Bioorg Med Chem Lett, 2013).

Experiments:
[1] = target: Replicase polyprotein 1a (Severe acute respiratory syndrome-related coronavirus, UniProt P0C6U8); experiment: Inhibition of SARS coronavirus 3CLpro
[2] = target: Cytochrome P450 2C9 (Homo sapiens, UniProt P11712); experiment: Inhibition of CYP2C9 (unknown origin); format: ADME
Cytochrome P450 2C9, sequence (P11712 whole entry): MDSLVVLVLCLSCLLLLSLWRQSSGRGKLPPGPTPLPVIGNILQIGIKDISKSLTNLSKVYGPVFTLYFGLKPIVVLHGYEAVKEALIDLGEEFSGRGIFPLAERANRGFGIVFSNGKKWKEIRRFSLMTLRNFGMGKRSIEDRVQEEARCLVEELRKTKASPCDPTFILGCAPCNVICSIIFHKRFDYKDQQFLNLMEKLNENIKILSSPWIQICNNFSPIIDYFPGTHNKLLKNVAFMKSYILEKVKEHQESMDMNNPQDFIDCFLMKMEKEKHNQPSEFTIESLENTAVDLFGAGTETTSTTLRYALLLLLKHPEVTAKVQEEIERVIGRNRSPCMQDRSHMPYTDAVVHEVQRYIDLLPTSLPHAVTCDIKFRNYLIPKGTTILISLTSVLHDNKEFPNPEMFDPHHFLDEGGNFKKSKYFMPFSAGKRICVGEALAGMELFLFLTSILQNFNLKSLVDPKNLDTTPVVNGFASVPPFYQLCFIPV

[3] = target: T1, Cytochrome P450 1A2 (Homo sapiens, UniProt P05177); experiment: Inhibition of CYP1A2 (unknown origin); format: ADME
T1 sequence (P05177 whole entry): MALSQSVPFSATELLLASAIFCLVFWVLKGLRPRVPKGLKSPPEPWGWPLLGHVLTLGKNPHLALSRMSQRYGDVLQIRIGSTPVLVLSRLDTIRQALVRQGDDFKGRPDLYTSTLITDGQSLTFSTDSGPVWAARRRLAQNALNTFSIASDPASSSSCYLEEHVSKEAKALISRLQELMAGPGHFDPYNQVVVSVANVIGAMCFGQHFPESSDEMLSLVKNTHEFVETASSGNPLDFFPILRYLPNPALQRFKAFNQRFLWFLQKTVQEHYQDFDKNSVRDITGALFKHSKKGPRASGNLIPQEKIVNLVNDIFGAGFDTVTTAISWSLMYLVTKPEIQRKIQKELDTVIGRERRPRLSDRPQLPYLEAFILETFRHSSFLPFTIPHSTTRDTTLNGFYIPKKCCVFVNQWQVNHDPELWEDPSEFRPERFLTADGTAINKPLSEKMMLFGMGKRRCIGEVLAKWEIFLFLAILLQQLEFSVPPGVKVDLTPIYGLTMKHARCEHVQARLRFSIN

[4] = target: Cytochrome P450 2D6 (Homo sapiens, UniProt P10635); experiment: Inhibition of CYP2D6 (unknown origin); format: ADME
Cytochrome P450 2D6, sequence (P10635 whole entry): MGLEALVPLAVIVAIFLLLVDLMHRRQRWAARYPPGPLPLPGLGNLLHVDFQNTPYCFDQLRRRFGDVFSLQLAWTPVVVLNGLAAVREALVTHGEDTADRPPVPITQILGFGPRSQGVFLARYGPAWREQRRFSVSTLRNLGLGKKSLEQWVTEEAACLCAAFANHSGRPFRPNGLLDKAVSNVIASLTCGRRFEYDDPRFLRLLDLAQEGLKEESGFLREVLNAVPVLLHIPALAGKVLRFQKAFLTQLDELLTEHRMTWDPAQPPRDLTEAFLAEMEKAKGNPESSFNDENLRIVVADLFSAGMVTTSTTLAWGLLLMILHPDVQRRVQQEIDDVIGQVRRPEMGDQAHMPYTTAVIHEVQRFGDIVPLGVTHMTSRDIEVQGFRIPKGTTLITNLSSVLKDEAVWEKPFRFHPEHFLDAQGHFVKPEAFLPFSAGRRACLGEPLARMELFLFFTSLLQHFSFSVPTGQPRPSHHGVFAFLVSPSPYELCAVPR

[5] = target: Replicase polyprotein 1a (Severe acute respiratory syndrome-related coronavirus) (UniProt P0C6U8); experiment: Inhibition of SARS coronavirus 3CLpro at 100 uM
[6] = Inhibition of SARS coronavirus PLpro; design: species or system Severe acute respiratory syndrome-related coronavirus

CC(C)COC(=O)Nc1ccc(N(C(=O)Cn2nnc3ccccc32)C(C(=O)NC(C)(C)C)c2ccsc2)cc1 (configuration not stated)
IC50 [1]: Not Active

O=C(Nc1ccc(N(Cc2ccsc2)C(=O)Cn2nnc3ccccc32)cc1)C1CC1
INH [2]: 7.2 µM
INH [3]: 7.7 µM
INH [4]: 8.4 µM

COc1ncccc1-c1ccc(N(Cc2ccsc2)C(=O)Cn2nnc3ccccc32)cc1
IC50 ([1]; read-out: IC50): 700 nM

O=C(Cn1nnc2ccccc21)N(Cc1ccsc1)c1ccc(-c2ccncc2)cc1
IC50 ([1]; read-out: IC50): 2000 nM

CC(C)(C)NC(=O)[C@@H](c1cccnc1)N(C(=O)c1ccco1)c1ccc(C(C)(C)C)cc1
INH [2]: 9.1 µM
INH [3]: > 30 µM
INH [4]: > 30 µM

O=C(Nc1ccc(N(Cc2ccsc2)C(=O)Cn2nnc3ccccc32)cc1)c1ccccc1
inhibition [5]: 18%

CCC(C)(C)NC(=O)[C@@H](c1ccn(C)c1)N(C(=O)Cn1nnc2ccccc21)c1ccc(NC(C)=O)cc1
IC50 [6]: > 60000 nM
IC50 ([1]; read-out: IC50): 6200 nM
